Results published in PubChem BioAssay (NCI).
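Five compound concentrations were applied to cells in 96-well plates for 48 hours; endpoints were derived by simple linear interpolation of the resulting dose-response curve. The concentration for 50% growth inhibition is given as GI50. TGI is the concentration that stops growth completely.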

How the values were obtained:
Test in all cases: growth of human tumour cells (NCI), 48 h
[1] = system: EKVX NSCLC
[2] = system: NCI-H226 lung
[3] = system: 786-0 renal
[4] = system: A549 NSCLC
[5] = system: SW-620 colon
[6] = system: OVCAR-5 ovarian
[7] = system: DU-145 prostate
[8] = system: COLO 205 colon
[9] = system: CAKI-1 renal
[10] = system: RPMI-8226 leukemia
[11] = system: NCI-H522 lung

SMILES	TGI [1] [µM]	TGI [2] [µM]	TGI [3] [µM]	TGI [4] [µM]	TGI [5] [µM]	TGI [6] [µM]	TGI [7] [µM]	TGI [8] [µM]	TGI [9] [µM]	TGI [10] [µM]	TGI [11] [µM]	GI50 [1] [µM]	GI50 [2] [µM]	GI50 [4] [µM]	GI50 [5] [µM]	GI50 [10] [µM]	GI50 [11] [µM]	GI50 [7] [µM]	GI50 [8] [µM]
O=C(Cc1ccccc1)NN1C(=O)/C(=C\c2cccc(O)c2)SC1=Nc1ccccc1	> 100	> 100	> 100	> 100	> 100	> 100	> 100	> 100											
CCCCCCCCCCCCCCCCCC(=O)O[C@H](COC(=O)CCCCCCCCCCC)COC(=O)CCCCCCCCCCCCCCC		> 100	> 100	> 100	> 100	> 100		> 100	> 100	> 100									
Cc1ccn2c(=O)cc(-c3ccccc3)nc2c1	> 100	> 100	> 100	> 100	> 100	> 100	> 100	> 100		> 100	> 100								
O=c1c2c([N+](=O)[O-])cccc2nc2[nH]c3ccccc3n12	> 75	> 75	> 75	> 75	> 75	> 75	> 75	> 75	45	> 75									
NC1=NS(=O)(=O)Nc2nc(-c3ccc([N+](=O)[O-])cc3)[nH]c21			> 100	> 100	> 100	> 100		> 100	> 100	> 100	> 100								
c1cc2nnnn2nc1N1CCCC1		> 100	> 100	> 100	> 100	> 100	> 100	> 100	> 100	> 100									
CNC(=O)Oc1ccc(-c2cn3cc(OC(=O)NC)ccc3n2)cc1	> 100	> 100	> 100	> 100	> 100	> 100	> 100	> 100	> 100	81.9									
Nc1cccc(Nc2nc3ccccc3nc2NS(=O)(=O)c2ccccc2)c1	> 100	> 100	> 100	> 100	44.2	> 100	> 100	29.7	80.3	52.5									
Cc1ccc(S(=O)(=O)OCC(=O)O)cc1	> 100		> 100	> 100	> 100	> 100	> 100		> 100	> 100	> 100								
NC1=NS(=O)(=O)Nc2nc(-c3ccc(Cl)cc3)c(-c3ccc(Cl)cc3)nc21			> 100	> 100	> 100	> 100		> 100	> 100		> 100								
COC(=O)N/N=C(\C)C(CN1CCCCC1)C(C1=C(O)c2ccccc2OC1)c1ccccc1 (configuration not stated)	> 100	> 100	> 100	> 100	> 100	> 100		> 100	> 100	> 100	> 100								
Cc1cn(C2CC(n3cc(Cn4cc(Br)c(=O)[nH]c4=O)nn3)C(CO)O2)c(=O)[nH]c1=O (configuration not stated)	> 100		> 100	> 100	> 100	> 100	> 100	> 100	> 100	> 100									
Nc1ccc(N=Nc2ccccc2)cc1	> 100	> 100	> 100	> 100	> 100	> 100		> 100	> 100										
Cc1cc(C)cc(Nc2cc(=O)[nH]c(=O)[nH]2)c1	> 100	> 100	> 100	> 100	> 100	> 100	> 100	> 100		> 100									
C/C=C/C(O)P1(=O)N(Cc2ccccc2)[C@@H]2CCCC[C@H]2N1Cc1ccccc1 (some centres not stated)	> 25	> 25	> 25	> 25	> 25	> 25	> 25	> 25	> 25		> 25								
C[C@]12CCc3nc(Nc4ccccc4)sc3C1=CC[C@@H]1[C@@H]2CC[C@]2(C)/C(=N/NC(N)=S)CC[C@@H]12	> 100	5.71		> 100	> 100		> 100	> 100		6.61	> 100	19.2	2.07	8.5	3.09	1.61	3.07	2.96	4.49
N#Cc1c(-c2ccccc2)nc(-c2ccccc2)sc1=S	> 100	> 100	> 100	> 100	> 100	> 100	> 100	> 100	> 100	> 100									
CCOC(=O)/C1=C(\C)N(c2ccc(C)cc2)C(=O)c2ccccc2C(=O)c2c(OC(C)=O)ccc(OC(C)=O)c21		65.7	> 100	> 100	> 100	> 100	> 100	26.3	38.5	30.3	74.1								
O=C(CSc1nnc(Cc2ccccc2)o1)Nc1ccc([N+](=O)[O-])cc1		> 100	> 100	> 100		> 100		> 100		> 100	> 100								
O=c1[nH]/c(=C/c2ccc(OCc3ccccc3)cn2)c(=O)[nH]/c1=C/c1ccc(O)cc1	> 89.1	> 100	1.45	> 53.5	> 100	> 100		10.3	3.08	9.95	0.806								
CC(=O)Nc1cc2c(s1)CCC1CC(=O)NN=C21 (configuration not stated)	> 100	> 100	> 100	> 100	> 100	> 100		> 100		> 100	> 100								
CC(=O)OC1CC2C(C)(C)OC(=O)CC(OC(C)=O)[C@]2(C)C2CCC3(C)C(=CCC3[C@H]3COC(=O)C3)[C@]12C (some centres not stated)	> 100	> 100	> 100	> 100	> 100	> 100		> 100	> 100	> 100	> 100								
